The source of these data is patent US20160022751A1, “NOVEL COMPOSITION FOR TREATING ALZHEIMER'S DISEASE AND IMPROVING COGNITIVE FUNCTION OF ALZHEIMER'S PATIENTS” (GANGNEUNG-WONJU NATIONAL UNIVERSITY INDUSTRY ACADEMY …, priority 2014, published 2016).

One assay has as its system Aβ42. Put plainly: Passive avoidance trials (PAT) in Aβ42-infused animals. As to conditions: Aβ42 rats administered Rg3 (FIG. 25). The format is in vivo. The method, then: Male BALB/c mice (10 weeks old) were purchased from Samtaco (Korea), and were adapted to laboratory conditions (temperature: 20±2° C., relative humidity: 50%, light/dark cycle: 12 h) for 1 week. Five-week-old male Sprague-Dawley rats were obtained from Daehan-Biolink (Korea) for learning and memory testing. The animals (n=5/group) were maintained at a constant temperature (23±2° C.), relative humidity, 55±10%, and 12-h light/dark cycle. The animals were fed a standard rodent chow and purified water ad libitum. Lyophilized Aβ42 (0.5 mg, Bachem Torrance, USA) was resuspended in PBS (pH 7.4) by shaking for 7 days at room temperature to prepare the fibrillar-aggregated Aβ42 (fAβ42). At 10 weeks of age, mice were anesthetized, and 1 μl fAβ42 (350 μM stock concentration) was stereotaxically injected unilaterally into the parietal cortex (anterior 1.7 mm, lateral 1 mm, and ventral 1 mm to the bregma above the hippocampus within 1 min) (Mohajeri et al., J. Biol. Chem., 277: 35460-35465, 2002)
The present inventor performed learning and memory tests using rats in order to investigate whether Rg3 can ameliorate symptoms of Alzheimer's model animals in deed. […] The latency time of stay in the light room from lights-on was recorded following an electric shock (1 mA for 2 s) in the dark compartment. […] The mean time spent to escape onto the platform was recorded.

For a further assay, the system named is ChAT. Put plainly: ChAT expression in N2a cells with or without Trk inhibitor K252a. The format is cell-based, mouse. As to conditions: K252a 50 nM, ginsenoside 5 μg/mL, 48 h (FIG. 12). From the text: Since NGF-Trk signal pathway upregulates ChAT and VAChT, it is important to know whether ginsenosides Rd and Re regulate Trk activity directly or at least indirectly. Therefore, the inventor investigated whether the expression of ChAT and VAChT was blocked by treating K252a, an inhibitor against protein kinase C (PKC) and Trk together with ginsenoside Rd or Re, in order to determine more closely whether the expression of cholinergic surface markers and the differentiation of neurons by the treatment of ginsenosides Rd and Re are caused whereby they act NGF-TrkA pathway directly. Particularly, N2a cells were treated with or without K252a (50 nM) in the presence of NGF (100 ng/mL), Re (5 μg/mL) or Rd (5 μg/mL) for 48 h. Total RNA and protein lysates were isolated as described in the Example 4-1 (FIG. 12). […] In addition, the present inventor performed quantitative RT-PCR in order to verify whether the treatment of ginsenosides Rd and Re affect the expression of NGF and NGFR in N2a cells.

The test system of a further assay is acetylcholine. Put plainly: Acetylcholine content in culture medium of N2a cells (assay kit). The format is cell-based, mouse. As to conditions: culture medium of N2a cells, 1, 2.5 and 5 μg/ml, 48 h (FIG. 7F). The method, then:
Further, the present inventor measured contents of acetylcholine in culture medium of N2a cells treated with Rd and/or […] (1, 2.5 and 5 μg/ml) for 48 h using a commercial acetylcholine assay kit (Cell Biolabs, USA), based on the enzyme driven reaction that will detect acetylcholine via acetylcholine esterase enzyme and choline oxidase according to the manufacturer's instruction (FIG. 7F).

For `CC(C)=CCC[C@](C)(O)[C@H]1CC[C@]2(C)[C@@H]1[C@H](O)C[C@@H]1[C@@]3(C)CC[C@H](O[C@@H]4O[C@H](CO)[C@@H](O)[C@H](O)[C@H]4O[C@@H]4O[C@H](CO)[C@@H](O)[C@H](O)[C@H]4O)C(C)(C)[C@@H]3CC[C@]12C` [ginsenoside Rg3], in the assay on Aβ42, the “learning and memory functions, passive avoidance” value was “maintained learning and memory functions at 4-5 weeks”.

As to `CC(C)=CCC[C@](C)(O[C@@H]1O[C@H](CO)[C@@H](O)[C@H](O)[C@H]1O)[C@H]1CC[C@]2(C)[C@@H]1[C@H](O)C[C@@H]1[C@@]3(C)CC[C@H](O)C(C)(C)[C@@H]3[C@@H](O[C@@H]3O[C@H](CO)[C@@H](O)[C@H](O)[C@H]3O[C@@H]3O[C@@H](C)[C@H](O)[C@@H](O)[C@H]3O)C[C@]12C` [ginsenoside Re], the “ChAT expression on co-treatment with K252a compared with single treatment” value in the assay on ChAT is on record as “inhibited”. Further, the acetylcholine production result in the assay with acetylcholine was “increased significantly”.

Regarding `CC(C)=CCC[C@](C)(O[C@@H]1O[C@H](CO)[C@@H](O)[C@H](O)[C@H]1O)[C@H]1CC[C@]2(C)[C@@H]1[C@H](O)C[C@@H]1[C@@]3(C)CC[C@H](O[C@@H]4O[C@H](CO)[C@@H](O)[C@H](O)[C@H]4O[C@@H]4O[C@H](CO)[C@@H](O)[C@H](O)[C@H]4O)C(C)(C)[C@@H]3CC[C@]12C` [ginsenoside Rd], the “ChAT expression on co-treatment with K252a compared with single treatment” value in the assay with ChAT is reported as “inhibited”. The acetylcholine production result in the assay on acetylcholine is “increased significantly”.
